From patent publication US9226919B2, “Methods for dosing an orally active 1,2,4-oxadiazole” (PTC Therapeutics, Inc., priority 2006, dated 2016)
Where two headings read alike, the source gives them in different places.

How the values were obtained:
[1] = tested on: patients with nonsense-mutation-mediated cystic fibrosis; assay: Pulmonary function tests (FEV1, FVC), Phase 2 cystic fibrosis study; assay type: in vivo, human
Description: Pulmonary function tests, including FEV1, FVC, and MEF25-75, are measured using standard spirometry procedures. Assessments of pulmonary function (including MEF25-75, FVC, and, particularly, FEV1) have been acknowledged as definitive clinical endpoints in patients with CF (Food and Drug Administration, 62nd Anti-Infective Drugs Advisory Committee. Discussion of NDA for tobramycin solution for inhalation (Tobi®) for the management of cystic fibrosis patients. November, 1997; Tiddens, 2002, Pediatr. Pulmonol. 34(3): 228-31). […] Pulmonary function testing is simple to administer (even in patients as young as 7 years of age), and uses standardized equipment and techniques that are widely available. Interpretation is performed using well-established normative equations that account for patient age, height, and gender.
3-[5-(2-Fluoro-phenyl)-[1,2,4]oxadiazol-3-yl]-benzoic acid was provided in a formulation described herein.
Clinical endpoints were evaluated using the procedures set forth above. TEPD measurements were made prior to treatment and on days 14 and 28 of Cycle 1 and Cycle 2. Nasal mucosal curettage was collected from each nostril of each patient prior to treatment and on days 14 and 28 of Cycle 1 and Cycle 2. Pulmonary tests, including FEV1, FVC and MEF25-75, were measured prior to treatment, on day −1 of Cycle 2, on day 13 or 14 of Cycle 1 and day 13 or 14 of Cycle 2 in the study being conducted in Israel and the same parameters were measured prior to treatment and on day 13 or 14 of Cycle 2 in the study being conducted in the United States.
Statistically significant results and positive trends for secondary endpoints were also observed. In particular, although the trials were not been powered to detect statistical significant changes in secondary endpoints, statistically significant improvements from study entry to the end of the higher-dose treatment cycle in the patients' mean FEV1, FVC and weight were observed.

[2] = Plasma pharmacokinetics, Phase 2 Duchenne muscular dystrophy study; assay type: in vivo, human; conditions: for AUC(0-t) / Cmax: human, oral
Description: FIG. 1 provides the plasma 3-[5-(2-fluoro-phenyl)-[1,2,4]oxadiazol-3-yl]-benzoic acid concentration-time profiles and PK parameters from 37 of 38 patients in a Phase 2 Duchenne muscular dystrophy study at 4-, 4-, and 8-mg/kg; 10-, 10-, and 20-mg/kg; and 20-, 20- and 40-mg/kg dose levels. The data from one patient was excluded from analysis due to insufficient data.
3-[5-(2-Fluoro-phenyl)-[1,2,4]oxadiazol-3-yl]-benzoic acid was provided in a formulation described herein. Treatment was administered over 28 days for each treatment cohort. An initial cohort of patients (n=6) were treated daily for 28 days with 3-[5-(2-fluoro-phenyl)-[1,2,4]oxadiazol-3-yl]-benzoic acid at 4-, 4-, and 8-mg/kg TID. After review of the clinical safety results, a second cohort of patients (n=20) were treated daily for 28 days with 3-[5-(2-fluoro-phenyl)-[1,2,4]oxadiazol-3-yl]-benzoic acid at 10-, 10-, and 20-mg/kg TID. Thus, each patient received a total of 84 doses of 3-[5-(2-fluoro-phenyl)-[1,2,4]oxadiazol-3-yl]-benzoic acid.
Blood for 3-[5-(2-fluoro-phenyl)-[1,2,4]oxadiazol-3-yl]-benzoic acid concentrations is collected immediately pre-dose and at 3 hours after administration of the first daily dose of study drug on the second day of each visit.
The study drug dosing and sample collection times are recorded. If a heparinized venous catheter is used for sample collection in order to avoid repeated needle sticks, at least 2 mL of blood is removed and discarded prior to each sample collection in order to avoid heparin contamination of the sample. All attempts are made to collect the blood samples at, or within ±5 minutes of, the scheduled time. The timing of the blood draw is in relation to the study drug dosing time.
Each sample comprises 2 mL of venous blood drawn into a 5-mL Vacutainer® or equivalent tube with K3-EDTA as the anticoagulant. Immediately after collection, the tube is gently inverted 8 to 10 times to mix the anticoagulant with the blood sample. The tube is stored upright on ice until centrifugation; centrifugation and sample processing are performed within 1 hour of sample collection. The plasma fraction is separated by placing the collection tube into a refrigerated centrifuge (4 to 8° C.) in a horizontal rotor (with a swing-out head) for a minimum of 15 minutes at 1500 to 1800 relative centrifugal force (RCF). The plasma fraction is withdrawn by pipette and divided into 2 polypropylene freezing tubes (with each tube receiving approximately equal aliquots). All sample collection and freezing tubes are clearly labeled in a fashion that identifies the subject, the study period, and the collection date and time. Labels are fixed to freezing tubes in a manner that will prevent the label from becoming detached after freezing. After processing, samples are placed into a freezer at approximately −20° C. (or lower).
Samples are stored for analysis of 3-[5-(2-fluoro-phenyl)-[1,2,4]oxadiazol-3-yl]-benzoic acid at the end of the study using a validated high performance liquid chromatography with tandem mass spectrometry (HPLC/MS-MS) method. Thereafter, samples are retained for potential later analyses.

[3] = study entry to end of higher dose treatment
[4] = 10, 10, 20 mg/kg TID, N = 20, mean
[5] = 20, 20, 40 mg/kg TID, N = 11, mean

Structure (SMILES): O=C(O)c1cccc(-c2noc(-c3ccccc3F)n2)c1 [3-[5-(2-fluoro-phenyl)-[1,2,4]oxadiazol-3-yl]-benzoic acid]
- Mean FEV1 (percentage of normal for gender, age and height), End of Higher Dose Treatment ([1]; end of higher-dose cycle (10, 10, 20 mg/kg TID), study entry 65.8%): 69.1%
- Mean FVC (percentage of normal for gender, age and height), End of Higher Dose Treatment ([1]; end of higher-dose cycle (10, 10, 20 mg/kg TID), study entry 80.2%): 85.1%
- Mean FEV1 (percentage of normal), Change [1, 3]: 3.3%
- Mean FVC (percentage of normal), Change [1, 3]: 4.9%
- Cmin, Day 1 ([2]; 4, 4, 8 mg/kg TID, N = 6, mean): 500 ng/mL
- Cmin, Day 28 ([2]; 4, 4, 8 mg/kg TID, N = 6, mean): 600 ng/mL
- Cmin, Day 1 [2, 4]: 3800 ng/mL
- Cmin, Day 28 [2, 4]: 3400 ng/mL
- Cmin, Day 1 [2, 5]: 9600 ng/mL
- Cmin, Day 28 [2, 5]: 6700 ng/mL
- AUC(0-t) ([2]; 8 mg/kg, 4, 4, 8 mg/kg TID, N = 6, mean, read-out: AUC0-24, Day 1): 87 µg·h/mL
- AUC(0-t) ([2]; 8 mg/kg, 4, 4, 8 mg/kg TID, N = 6, mean, read-out: AUC0-24, Day 28): 91 µg·h/mL
- Cmax ([2]; 8 mg/kg, 4, 4, 8 mg/kg TID, N = 6, mean, read-out: Cmax, Day 1): 10000 ng/mL
- Cmax ([2]; 8 mg/kg, 4, 4, 8 mg/kg TID, N = 6, mean, read-out: Cmax, Day 28): 11000 ng/mL
- AUC(0-t) ([2]; 20 mg/kg, 10, 10, 20 mg/kg TID, N = 20, mean, read-out: AUC0-24, Day 1): 291 µg·h/mL
- AUC(0-t) ([2]; 20 mg/kg, 10, 10, 20 mg/kg TID, N = 20, mean, read-out: AUC0-24, Day 28): 235 µg·h/mL
- Cmax ([2]; 20 mg/kg, 10, 10, 20 mg/kg TID, N = 20, mean, read-out: Cmax, Day 1): 27000 ng/mL
- Cmax ([2]; 20 mg/kg, 10, 10, 20 mg/kg TID, N = 20, mean, read-out: Cmax, Day 28): 22000 ng/mL
- AUC(0-t) ([2]; 40 mg/kg, 20, 20, 40 mg/kg TID, N = 11, mean, read-out: AUC0-24, Day 1): 866 µg·h/mL
- AUC(0-t) ([2]; 40 mg/kg, 20, 20, 40 mg/kg TID, N = 11, mean, read-out: AUC0-24, Day 28): 490 µg·h/mL
- Cmax ([2]; 40 mg/kg, 20, 20, 40 mg/kg TID, N = 11, mean, read-out: Cmax, Day 1): 76000 ng/mL
- Cmax ([2]; 40 mg/kg, 20, 20, 40 mg/kg TID, N = 11, mean, read-out: Cmax, Day 28): 46000 ng/mL
